One block for each molecule: values may come before it.
System: MDA-MB-231 multicell spheroids, viability
Assay: Anticancer human tumor MDA-MB-231 cell line growth inhibition [PI3K];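 also: spheroids exposed to agents for seven days before reading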;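 as to viability, T/C: percent of vehicle control luminescence with DMSO treated spheroids as 100%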
Conditions: for IC50: curve of first compound; for viability, T/C: stronger effect = lower value
From the text: Combinatorial screen of targeted agents with the PI3K inhibitors inavolisib, alpelisib, duvelisib, and copanlisib in multi-cell type tumor spheroids
A high-throughput screen of multi-cell type tumor spheroids was designed to identify active combinations of targeted small molecules and PI3K pathway inhibitors. Complex spheroids include a stromal component modeled by human endothelial cells (HUVEC) and fibroblasts modeled by human mesenchymal stem cells (MSCs). The concentration ranges selected for each drug and investigational agent were based upon clinically achievable concentrations if the clinical Cmax of the agent was known.
Compounds. The drugs and investigational agents: inavolisib (NSC800729), alpelisib (NSC765974), duvelisib (NSC772469), copanlisib (NSC816437), ipatasertib (NSC767898), afuresertib (NSC778305), talazoparib (NSC767125), sapanisertib (NSC764658), selumetinib (NSC741078), tovorafenib (DAY101, NSC766906), vemurafenib (NSC761431), ravoxertinib (NSC781343), sotorasib (NSC818433), MRTX1133 (NSC 836407), abemaciclib (NSC 768073), palbociclib (NSC758247), venetoclax (NSC 766270), SY5609 (NSC837396), enzalutamide (NSC755605), and darolutamide (NSC825331), were obtained from the National Cancer Institute (NCI) Developmental Therapeutics Program Chemical Repository. The FDA-approved anticancer drug set is available from the NCI Developmental Therapeutics Program. […] The stock solutions were prepared in dimethyl sulfoxide (DMSO, Sigma-Aldrich, St. Louis, MO, cat. D2650) at 800-fold the tested concentration and stored at -70 degrees C prior to their use. All drugs and investigational agents were tested over a range starting from a high concentration at or near the clinical Cmax and decreasing in half-log increments. If the clinical Cmax for an agent had not been determined, the highest concentration tested was 10 microM.
Cell Culture. All cells were maintained in an incubator at 37 degrees C and 5% CO2 with 95% humidity. The PDC lines were cultured according to standard operating procedures established by the NCI PDMR (https://pdmr.cancer.gov/sops/default.htm). All PDCs were thawed and cultured in Matrigel-coated flasks prepared with a working solution of 1X Ham's F-12 nutrient mix, without supplementation (Invitrogen, Waltham, MA, cat. 11765054), 100 U/mL penicillin-streptomycin (Invitrogen, cat. 15140122), and 2.5% Matrigel (Corning Inc., Corning, NY, cat. 354248) for the first three passages. The 354836-022-R-J1-PDC, 475296-252-R-J1-PDC, and 997726-040-R-J2-PDC lines were cultured in 6A media, which includes advanced DMEM/F-12 (Thermo Fisher Scientific, cat. 12634028), 10 mM HEPES (Thermo Fisher Scientific, cat. 15630080), 1X GlutaMAX supplement (Thermo Fisher Scientific, cat. 35050061), 0.1 mg/mL primocin (InvivoGen, San Diego, CA, cat. ant-pm-2), 10% defined fetal bovine serum, heat inactivated (HyClone Laboratories Inc., Logan, UT, cat. SH30070.03HI), 50% L-WRN conditioned media (ATCC, cat. CRL-3276), 1.25 mM N-Acetyl-L-cysteine (Sigma-Aldrich, cat. A9165), 10 mM nicotinamide (Sigma-Aldrich, cat. N0636), 1X B-27 supplement (Thermo Fisher Scientific, cat. 17504044), 1X N-2 supplement (Thermo Fisher Scientific, cat. 17502048), and 10 microM Y-27632 dihydrochloride (Tocris Bioscience, Bristol, United Kingdom, cat. 1254). The 624824-186-R-J2-PDC line was cultured in 6C/Colon 1B media, which includes all 6A media components plus 50 ng/mL human EGF recombinant protein (Thermo Fisher Scientific, cat. PHG0311). […]

[1] = second compound 0.00316 µM, first compound 0.0316 µM
[2] = second compound 0.00316 µM, first compound 0.1 µM
[3] = second compound 0.00316 µM, first compound 0.316 µM
[4] = second compound 0.00316 µM, first compound 1 µM
[5] = second compound 0.01 µM, first compound 0.0316 µM
[6] = second compound 0.01 µM, first compound 0.1 µM
[7] = second compound 0.01 µM, first compound 0.316 µM
[8] = second compound 0.01 µM, first compound 1 µM
[9] = second compound 0.0316 µM, first compound 0.0316 µM
[10] = second compound 0.0316 µM, first compound 0.1 µM
[11] = second compound 0.0316 µM, first compound 0.316 µM
[12] = second compound 0.0316 µM, first compound 1 µM
[13] = second compound 0.1 µM, first compound 0.0316 µM
[14] = second compound 0.1 µM, first compound 0.1 µM
[15] = second compound 0.1 µM, first compound 0.316 µM
[16] = second compound 0.1 µM, first compound 1 µM
[17] = second compound 0.316 µM, first compound 0.0316 µM
[18] = second compound 0.316 µM, first compound 0.1 µM
[19] = second compound 0.316 µM, first compound 0.316 µM
[20] = second compound 0.316 µM, first compound 1 µM
[21] = second compound 1 µM, first compound 0.0316 µM
[22] = second compound 1 µM, first compound 0.1 µM
[23] = second compound 1 µM, first compound 0.316 µM
[24] = second compound 1 µM, first compound 1 µM
[25] = second compound 0.00316 µM, first compound 0.00316 µM
[26] = second compound 0.00316 µM, first compound 0.01 µM
[27] = second compound 0.01 µM, first compound 0.00316 µM
[28] = second compound 0.01 µM, first compound 0.01 µM
[29] = second compound 0.0316 µM, first compound 0.00316 µM
[30] = second compound 0.0316 µM, first compound 0.01 µM
[31] = second compound 0.1 µM, first compound 0.00316 µM
[32] = second compound 0.1 µM, first compound 0.01 µM
[33] = second compound 0.316 µM, first compound 0.00316 µM
[34] = second compound 0.316 µM, first compound 0.01 µM
[35] = second compound 1 µM, first compound 0.00316 µM
[36] = second compound 1 µM, first compound 0.01 µM

IC50 (second compound 0.00316 µM): 7030 nM
IC50 (second compound 0.01 µM): 6950 nM
IC50 (second compound 0.0316 µM): 5100 nM
IC50 (second compound 0.1 µM): 4310 nM
IC50 (second compound 0.316 µM): 2690 nM
IC50 (second compound 1 µM): 1920 nM
SMILES: CC(C)NCC(C(=O)N1CCN(c2ncnc3c2C(C)CC3O)CC1)c1ccc(Cl)cc1 (stereo unspecified) + CC(Nc1ccc2c(c1)OCCn1cc(N3C(=O)OCC3C(F)F)nc1-2)C(N)=O
viability, T/C [1]: 95.8%
viability, T/C [2]: 94.6%
viability, T/C [3]: 99.3%
viability, T/C [4]: 86.6%
viability, T/C (second compound 0.00316 µM, first compound 3.16 µM): 67.1%
viability, T/C (second compound 0.00316 µM, first compound 10 µM): 42.5%
viability, T/C [5]: 87.5%
viability, T/C [6]: 93.1%
viability, T/C [7]: 81.8%
viability, T/C [8]: 81.6%
viability, T/C (second compound 0.01 µM, first compound 3.16 µM): 60.1%
viability, T/C (second compound 0.01 µM, first compound 10 µM): 45.2%
viability, T/C [9]: 86.6%
viability, T/C [10]: 84.1%
viability, T/C [11]: 72.7%
viability, T/C [12]: 71.4%
viability, T/C (second compound 0.0316 µM, first compound 3.16 µM): 56.8%
viability, T/C (second compound 0.0316 µM, first compound 10 µM): 39.9%
viability, T/C [13]: 71.6%
viability, T/C [14]: 72.8%
viability, T/C [15]: 67.7%
viability, T/C [16]: 63.5%
viability, T/C (second compound 0.1 µM, first compound 3.16 µM): 54.5%
viability, T/C (second compound 0.1 µM, first compound 10 µM): 38.2%
viability, T/C [17]: 66.2%
viability, T/C [18]: 63.7%
viability, T/C [19]: 59.7%
viability, T/C [20]: 61.6%
viability, T/C (second compound 0.316 µM, first compound 3.16 µM): 47.2%
viability, T/C (second compound 0.316 µM, first compound 10 µM): 30.8%
viability, T/C [21]: 64%
viability, T/C [22]: 61.3%
viability, T/C [23]: 58.9%
viability, T/C [24]: 52.9%
viability, T/C (second compound 1 µM, first compound 3.16 µM): 48.3%
viability, T/C (second compound 1 µM, first compound 10 µM): 34.9%

IC50 (second compound 0.00316 µM): 131 nM
IC50 (second compound 0.01 µM): 79.2 nM
IC50 (second compound 0.0316 µM): 53.2 nM
IC50 (second compound 0.1 µM): 24.4 nM
IC50 (second compound 0.316 µM): 21.4 nM
IC50 (second compound 1 µM): 20 nM
SMILES: CCN1CCN(Cc2ccc(Nc3ncc(F)c(-c4cc(F)c5nc(C)n(C(C)C)c5c4)n3)nc2)CC1 + CC(Nc1ccc2c(c1)OCCn1cc(N3C(=O)OCC3C(F)F)nc1-2)C(N)=O
viability, T/C [25]: 90.8%
viability, T/C [26]: 103%
viability, T/C [1]: 76%
viability, T/C [2]: 54.5%
viability, T/C [3]: 41.9%
viability, T/C [4]: 44.9%
viability, T/C [27]: 92.7%
viability, T/C [28]: 96.3%
viability, T/C [5]: 65.7%
viability, T/C [6]: 50.1%
viability, T/C [7]: 40.6%
viability, T/C [8]: 47%
viability, T/C [29]: 80.2%
viability, T/C [30]: 84.3%
viability, T/C [9]: 57.4%
viability, T/C [10]: 42.6%
viability, T/C [11]: 35%
viability, T/C [12]: 45.5%
viability, T/C [31]: 69.5%
viability, T/C [32]: 70.4%
viability, T/C [13]: 44.2%
viability, T/C [14]: 37.1%
viability, T/C [15]: 33.3%
viability, T/C [16]: 43.8%
viability, T/C [33]: 63.4%
viability, T/C [34]: 62.8%
viability, T/C [17]: 43.4%
viability, T/C [18]: 36.5%
viability, T/C [19]: 35.4%
viability, T/C [20]: 43.5%
viability, T/C [35]: 60.1%
viability, T/C [36]: 64.8%
viability, T/C [21]: 41.7%
viability, T/C [22]: 34.5%
viability, T/C [23]: 34.4%
viability, T/C [24]: 39.1%

IC50 (second compound 0.00316 µM): > 100 nM
IC50 (second compound 0.01 µM): > 100 nM
IC50 (second compound 0.0316 µM): > 100 nM
IC50 (second compound 0.1 µM): 74 nM
IC50 (second compound 0.316 µM): 47.1 nM
IC50 (second compound 1 µM): 17.6 nM
SMILES: Cn1ncnc1[C@H]1c2n[nH]c(=O)c3cc(F)cc(c23)N[C@@H]1c1ccc(F)cc1 + CC(Nc1ccc2c(c1)OCCn1cc(N3C(=O)OCC3C(F)F)nc1-2)C(N)=O
viability, T/C (second compound 0.00316 µM, first compound 0.000316 µM): 99.1%
viability, T/C (second compound 0.00316 µM, first compound 0.001 µM): 93.9%
viability, T/C [25]: 97.8%
viability, T/C [26]: 87.8%
viability, T/C [1]: 82.4%
viability, T/C [2]: 74.5%
viability, T/C (second compound 0.01 µM, first compound 0.000316 µM): 90.7%
viability, T/C (second compound 0.01 µM, first compound 0.001 µM): 95%
viability, T/C [27]: 81.8%
viability, T/C [28]: 84.4%
viability, T/C [5]: 78.2%
viability, T/C [6]: 78.3%
viability, T/C (second compound 0.0316 µM, first compound 0.000316 µM): 78.1%
viability, T/C (second compound 0.0316 µM, first compound 0.001 µM): 86.7%
viability, T/C [29]: 75.4%
viability, T/C [30]: 73.5%
viability, T/C [9]: 63.7%
viability, T/C [10]: 58.9%
viability, T/C (second compound 0.1 µM, first compound 0.000316 µM): 70.8%
viability, T/C (second compound 0.1 µM, first compound 0.001 µM): 69.7%
viability, T/C [31]: 65%
viability, T/C [32]: 62.4%
viability, T/C [13]: 50.5%
viability, T/C [14]: 50.1%
viability, T/C (second compound 0.316 µM, first compound 0.000316 µM): 62.7%
viability, T/C (second compound 0.316 µM, first compound 0.001 µM): 64.3%
viability, T/C [33]: 59.4%
viability, T/C [34]: 56.9%
viability, T/C [17]: 49.4%
viability, T/C [18]: 47.7%
viability, T/C (second compound 1 µM, first compound 0.000316 µM): 63.2%
viability, T/C (second compound 1 µM, first compound 0.001 µM): 58%
viability, T/C [35]: 53.9%
viability, T/C [36]: 51.6%
viability, T/C [21]: 50%
viability, T/C [22]: 45.4%
